Reference: patent publication US12358892B2, “Metalloenzyme inhibitors for treating cancers, Alzheimer's disease, hemochromatosis, and other disorders” (Miralogx LLC, priority 2020, dated 2025)
“Also recorded” adds a separate entry of the source.

Key:
Assay type in all cases: cell-based, human
[1] = test system: NCI-H1299 NSCLC cell line; assay: BioMAP Oncology NSCLC panel (StroNSCLC and VascNSCLC systems)
Description: The BioMAP® oncology system used in this Example is a coculture of primary human immune cells with primary tissue cells in the presence of the NSCL cells. In particular, The BioMAP® Oncology NSCLC panel models the interactions between the immune-stromal (fibroblasts) and immune-vascular (endothelial cells) environments in the context of non-small lung cancer (NCI-H1299 NSCLC cell line). The interactions between tumor cells, stimulated immune cells (peripheral blood mononuclear cells [PBMC]), and the host stromal network (human neonatal dermal fibroblasts [HDFn]) are captured in the StroNSCLC system. In parallel, the VascNSCLC system captures the interactions between tumor cells, activated immune cells and the vascular tissue (human umbilical vein endothelial cells [HUVEC]). The biomarkers selected for the BioMAP® Non-small Cell Lung Cancer (NSCLC) panel inform on activities related to inflammation, immune-function, tissue remodeling and metastasis in the context of a host tumor-microenvironment.
A signature BioMAP® profile that is reflective of the changes in protein biomarker readouts within an individual system is generated for each test agent. Biomarker readouts selected for therapeutic and biological relevance are predictive for disease outcomes or specific drug effects, and have been validated using agents with known clinical efficacy. Each readout is measured quantitatively by immune-based receptors, cytokines, chemokines, matrix molecules and enzymes. In total, the 42 biomarker readouts in the NSCLC panel capture the biological changes that occur within the physiological context of each particular BioMAP® system.
The BioMAP® Non-small Cell Lung Cancer (NSCLC) panel allows a focused in vitro evaluation of the impact of an agent in a model system that includes the hierarchical signaling networks that exist between interacting pathways and cells in a disease relevant setting. To represent the changes that are occurring in these complex systems, biomarker readouts with the ability to integrate and distinguish changes in different regulatory networks have been selected.
Data analysis of the results was performed as described in detail above in Example 3.1. Briefly, biomarker activities are annotated when at least one concentration of the test agent is outside of the significance envelope with an effect size >20% compared to the vehicle control (|log 10 ratio|>0.1) and a p-value <0.01. Cytotoxic conditions are noted when total protein levels decrease by more than 50% (log 10 ratio of SRB <−0.3). Biomarker key activities are described as modulated if these activities increase in some systems, but decrease in others.

fibroblasts = assay: BioMAP proliferation readout, fibroblasts; settings: 100 μM
Description: (§1) The X-axis lists the quantitative protein-based biomarker readouts measured in each system. The Y-axis represents a log-transformed ratio of the biomarker readouts for the drug-treated sample (n=1) over vehicle controls (n≥6). The grey region around the Y-axis represents the 95% significance envelope generated from historical vehicle controls. Biomarker activities are annotated when two or more consecutive concentrations change in the same direction relative to vehicle controls, are outside of the significance envelope, and have at least one concentration with an effect size >20% (|log 10 ratio|>0.1). Biomarker key activities are described as modulated if these activities increase in some systems, but decrease in others. […] As summarized in Table 2 below, the compound was active with 35 annotated readouts. […]
(§2) Human primary cells in BioMAP® systems are used at early passage (passage 4 or earlier) to minimize adaptation to cell culture conditions and preserve physiological signaling responses. […] Test agents prepared in either DMSO (small molecules; final concentration ≤0.1%) or PBS (biologics) are added at the indicated concentrations 1-hr before stimulation, and remain in culture for 24-hrs or as otherwise indicated (48-hrs, MyoF system; 72-hrs, BT system (soluble readouts); 168-hrs, BT system (secreted IgG)). […]

T cells = assay: BioMAP proliferation readout, T cells; settings: 100 μM, 33 μM
Description: as §1, §2

[2] = 7.4 μM, 22 μM, 67 μM, Angiogenesis related activities
[3] = 7.4 μM, 22 μM, 67 μM, Immune-related activities
[4] = 7.4 μM, 22 μM, 67 μM, Inflammation related activities
[5] = 7.4 μM, 22 μM, 67 μM, Matrix remodeling activities

C1=NC(c2cncc(C3CCC=N3)c2)CC1 (stereo not drawn) [3,5-bis(3,4-dihydro-2H-pyrrol-2-yl)pyridine]
Decreased activity: uPA [1, 2]: decreased and uPA | Increased activity: tPA [1, 2]: increased and tPA | Decreased Activity: sIL-6 [1, 3]: decreased | Decreased activity: sGranB [1, 3]: decreased; also recorded: sGranB | Decreased activity: sIFNγ [1, 3]: decreased; also recorded: SIFNG | Decreased activity: sIL-2 [1, 3]: decreased | Decreased activity: sIL-4 [1, 3]: decreased; also recorded: SIL-4 | Decreased activity: sIL-10 [1, 3]: decreased | Decreased activity: sIL-13 [1, 3]: decreased | Decreased activity: sIL-17A [1, 3]: decreased; also recorded: SIL-17A | Decreased Activity: sTNFα [1, 4]: decreased; also recorded: STNFa | Decreased activity: VCAM-1 [1, 4]: decreased; also recorded: VCAM-1 | Decreased activity: sMDC [1, 4]: decreased | Increased activity: IP-10 [1, 4]: increased; also recorded: IP-10 | Increased activity: Collagen III [1, 5]: increased; also recorded: Col-III | Increased activity: EGFR [1, 5]: increased and EGFR | Increased activity: HGF [1, 5]: increased and HGF | annotated readouts ([1]; BioMAP Oncology NSCLC Panel): 21 | annotated activities ([1]; StroNSCLC system): 16 | annotated activities ([1]; VascNSCLC system): five | cytotoxicity ([1]; at 200 μM): cytotoxic | cytotoxicity in the VascNSCLC system ([1]; at 200 μM, VascNSCLC system): detectable cytotoxicity | antiproliferative effect on fibroblasts (fibroblasts): antiproliferative | antiproliferative effect on T cells (T cells): antiproliferative
